Columns and labels:
[1] = system: Leptosphaeria nodorum (LEPTNO); assay: Glume Blotch of Wheat, whole plant 24 Hour Protectant (T2); details: Parastagonospora nodorum; wheat (cultivar Yuma), sprayed at 100 ppm, inoculated after 24 hours; read-out: T2 LEPTNO in vivo 1 Day Protectant, control of fungal infection
[2] = system: Phytophthora infestans (PHYTIN); assay: whole plant or invertebrate; details: in Solanum lycopersicum, 24 h, read-out: T3 PHYTIN in vivo 1 Day Protectant, control of fungal infection
[3] = system: Puccinia recondita (PUCCRT); assay: Brown Rust of Wheat, whole plant 24 Hour Protectant (T5); details: wheat (cultivar Yuma), sprayed at 100 ppm, inoculated after 24 hours, read-out: T5 PUCCRT in vivo 1 Day Protectant, control of fungal infection
[4] = system: Erysiphe graminis (ERYSGT); assay: Powdery Mildew of Wheat, whole plant 24 Hour Protectant (T1); details: Blumeria graminis, in Triticum aestivum, read-out: T1 ERYSGT in vivo 1 Day Protectant, control of fungal infection
Method: Compound formulation was accomplished by dissolving technical materials in acetone, with serial dilutions then made in acetone to obtain desired concentrations. Final treatment volumes were obtained by adding 9 volumes 0.01% Triton X-100.
Powdery Mildew of Wheat (Erysiphe graminis—ERYSGT) (24 Hour Protectant): Wheat (cultivar Monon) was grown in a soilless peat-based potting mixture (“Metromix”) and mineral soil (50/50 mix) until the seedlings were 10-20 cm tall. These plants were then sprayed to run-off with the test compound at a rate of 100 ppm. After 24 hours the test plants were inoculated by dusting with conidia from powdery mildew infected wheat plants. The plants were then transferred to the greenhouse until disease developed on the untreated control plants.

[5] = system: Stagonospora nodorum (Leptosphaeria nodorum, LEPTNO); assay: microbe, parasite or virus in culture; assay type: cell-based; details: Parastagonospora nodorum, read-out: T7 LEPTNO in vitro Growth Inhibition
[6] = system: Phytophthora infestans (PHYTIN); assay: microbe, parasite or virus in culture; assay type: cell-based; details: in Secale cereale, read-out: T8 PHYTIN in vitro Growth Inhibition
[7] = system: Magnaporthe grisea (Pyricularia oryzae, PYRIOR); assay: microbe, parasite or virus in culture; assay type: cell-based; details: read-out: T9 PYRIOR in vitro Growth Inhibition
[8] = system: Rhizoctonia solani (RHIZSO); assay: microbe, parasite or virus in culture; assay type: cell-based; details: read-out: T10 RHIZSO in vitro Growth Inhibition
[9] = system: Mycosphaerella graminicola (Septoria tritici, SEPTTR); assay: microbe, parasite or virus in culture; assay type: cell-based; details: Zymoseptoria tritici, read-out: T11 SEPTTR in vitro Growth Inhibition
Ustilago maydis (USTIMA) = assay: microbe, parasite or virus in culture; assay type: cell-based; details: Mycosarcoma maydis, read-out: T12 USTIMA in vitro Growth Inhibition

SMILES	pest or weed control at 100 ppm [1] [%]	pest or weed control at 100 ppm [2] [%]	pest or weed control at 100 ppm [3] [%]	pest or weed control at 100 ppm [4] [%]	inhibition at 25 ppm [5] [%]	inhibition at 25 ppm [6] [%]	inhibition at 25 ppm [7] [%]	inhibition at 25 ppm [8] [%]	inhibition at 25 ppm [9] [%]	inhibition at 25 ppm (Ustilago maydis (USTIMA)) [%]
COCCOCOc1c(OC)ccnc1C(=O)N[C@H]1COC(=O)[C@H](Cc2ccccc2)[C@@H](OC(=O)C(C)C)[C@H](C)OC1=O [Compound 11]	75 to 100	< 25	75 to 100	25 to 74						
COc1ccnc(C(=O)N[C@H]2COC(=O)[C@H](Cc3ccccc3)[C@@H](OC(=O)C(C)C)[C@H](C)OC2=O)c1OC(C)OC (stereo partly shown) [Compound 16]	75 to 100	< 25		< 25	> 80	< 80	> 80	< 80	> 80	< 80
COc1ccnc(C(=O)N[C@H]2COC(=O)[C@H](Cc3ccccc3)[C@@H](OC(=O)C(C)C)[C@H](C)OC2=O)c1OCOC(=O)OC(C)C [Compound 47]	75 to 100	< 25	75 to 100	< 25						
COCCOC(C)C(=O)OCOc1c(OC)ccnc1C(=O)N[C@H]1COC(=O)[C@H](Cc2ccccc2)[C@@H](OC(=O)C(C)C)[C@H](C)OC1=O (stereo partly shown) [Compound 66]	75 to 100	< 25	75 to 100		< 80	< 80	< 80	< 80	< 80	< 80
COc1ccnc(C(=O)N[C@H]2COC(=O)[C@H](Cc3ccccc3)[C@@H](OC(=O)C(C)C)[C@H](C)OC2=O)c1OCOC(=O)C(C)OC (stereo partly shown) [Compound 67]	75 to 100	< 25	75 to 100		< 80	< 80	< 80	< 80	< 80	> 80
CCOC(C)C(=O)OCOc1c(OC)ccnc1C(=O)N[C@H]1COC(=O)[C@H](Cc2ccccc2)[C@@H](OC(=O)C(C)C)[C@H](C)OC1=O (stereo partly shown) [Compound 68]	75 to 100	< 25	75 to 100		> 80	< 80	< 80	> 80	> 80	> 80
CCCOC(C)C(=O)OCOc1c(OC)ccnc1C(=O)N[C@H]1COC(=O)[C@H](Cc2ccccc2)[C@@H](OC(=O)C(C)C)[C@H](C)OC1=O (stereo partly shown) [Compound 69]	75 to 100	< 25	75 to 100		> 80	< 80	> 80	> 80	> 80	> 80
COc1ccnc(C(=O)N[C@H]2COC(=O)[C@H](Cc3ccccc3)[C@@H](OC(=O)C(C)C)[C@H](C)OC2=O)c1OCOC(=O)COCC(F)(F)F [Compound 70]	75 to 100	< 25	75 to 100		> 80	< 80	< 80	< 80	< 80	> 80
COc1ccnc(C(=O)N[C@H]2COC(=O)[C@H](Cc3ccccc3)[C@@H](OC)[C@H](C)OC2=O)c1OCOC(C)=O [Compound 71]					> 80	< 80	> 80	< 80	> 80	> 80
COCCOCCOCC(=O)OCOc1c(OC)ccnc1C(=O)N[C@H]1COC(=O)[C@H](Cc2ccccc2)[C@@H](OC(=O)C(C)C)[C@H](C)OC1=O [Compound 75]		< 25		75 to 100	> 80	< 80	> 80	< 80	> 80	> 80

From US6861390B2, “Derivatives of UK-2A” (priority 2001, dated 2005)
